Data as given in US7550629B2, “Trifluoromethyl-containing phenylsulfonamide beta amyloid inhibitors” (Wyeth, priority 2006, dated 2009).

How the values were obtained:
[1] = tested on: beta amyloid 40; experiment: Aβ40/42 ELISA Assay: Aβ40; format: cell-based; settings: Cricetulus griseus; CHO cells carrying the APP-REP-NL plasmid, 22 hours, sandwich ELISA of medium
Description: (§1) Pharmacology: Aβ40/42 ELISA Assay
(§2) Compounds are diluted from DMSO stocks to 2 μM and below in a cell culture medium. Compounds are then applied to CHO cells carrying the APP-REP-NL plasmid [Sudhir et. al, J. Biol. Chem. 267:25602-25608 (1992)] for a period of 22 hours. After the conditioning period, medium is collected, diluted in assay buffer containing protein, and samples, controls, and synthetic peptide standards are incubated on a prepared ELISA plate. Using a sandwich ELISA with antibodies specifically directed against the carboxyl terminus of beta amyloid 40 or 42 [analogous to the method reported by Haugabook et al., J. Neurosci. Methods 108:171-179 (2001) but using goat anti-mouse IgGl (source: Southern Biotech) as the anchor, 6E10 as the capture antibody (Source: SENETEK), rabbit antiαβ40 and antiαβB42 (source: QCB) and APL-donkey anti-rabbit IgG (H+L, source: Southern Biotech) as the detection antibody], the effect of the compound treatment on the cellular production of extracellular beta amyloid is quantified. Cells treated with compound are subsequently incubated in cell culture medium containing […]. After a short incubation period, MTS/medium containing plates are read in a spectrophotometer to determine the extent to which compound toxicity affected the cell's metabolism and ability to synthesize beta amyloid.
(§3) Test Samples: compound samples are supplied as 20 mM stock solutions in a 100% DMSO solution.
(§4) APP-REP-NL cells: Qualified cell lines are carried from week to week using 1:100 dilutions and are cultured in DMEM supplemented with 1× antibiotic/antimycotic, 200 μg/ml of G418 antibiotic, and 10% certified fetal calf serum. Cells are also banked in liquid nitrogen. Periodically, beta amyloid production is assessed, and cells are either kept in culture or replaced with progenitors at full expression.
(§5) Antibodies: Are from certified lots that have already been qualified in this assay. Antibodies are stored in small frozen aliquots at −80° C. that are thawed and used.
(§6) A compound is considered active if it has an EC50 for Aβ 40 reduction of <100 μM and no toxicity at doses in the vicinity the EC50.

[2] = tested on: beta amyloid 42; experiment: Aβ40/42 ELISA Assay: Aβ42; format: cell-based; settings: Cricetulus griseus; CHO cells carrying the APP-REP-NL plasmid, 22 hours, sandwich ELISA of medium
Description: as §1, §2, §3, §4, §5, §6

Row | Compound | EC50 [1] | EC50 [2]
1 | CSc1cc(S(=O)(=O)NC(CO)C(C(F)(F)F)C(F)(F)F)ccc1Cl (stereo not shown) [Example 23, 4-Chloro-3-methylsulfanyl-N-(3,3,3-trifluoro-1-hydroxymethyl-2-trifluoromethyl-propyl)-benzenesulfonamide] | 22.3 µM | 
2 | N#Cc1ccc(S(=O)(=O)NC(CO)C(C(F)(F)F)C(F)(F)F)cc1 (stereo not shown) [Example 18, 4-Cyano-N-(3,3,3-trifluoro-1-hydroxymethyl-2-trifluoromethyl-propyl)-benzenesulfonamide] | 90.7 µM | 101 µM
3 | O=S(=O)(NC(CO)C(C(F)(F)F)C(F)(F)F)c1cccc(Cl)c1Cl (stereo not shown) [Example 37, 2,3-dichloro-N-(3,3,3-trifluoro-1-hydroxymethyl-2-trifluoromethyl-propyl)-benzenesulfonamide] | 11.1 µM | 14 µM
4 | O=S(=O)(NC(CO)C(C(F)(F)F)C(F)(F)F)c1cccc(Br)c1 (stereo not shown) [Example 32, 3-bromo-N-(3,3,3-trifluoro-1-hydroxymethyl-2-trifluoromethyl-propyl)-benzenesulfonamide] | 19.8 µM | 25.3 µM
5 | O=S(=O)(NC(CO)C(C(F)(F)F)C(F)(F)F)c1cccc(C(F)(F)F)c1 (stereo not shown) [Example 16, N-[3,3,3-trifluoro-1-(hydroxymethyl)-2-(trifluoromethyl)propyl]-3-(trifluoromethyl)benzenesulfonamide] | 28.1 µM | 
6 | O=S(=O)(NC(CO)C(C(F)(F)F)C(F)(F)F)c1ccc(F)cc1F (stereo not shown) [Example 35, 2,4-difluoro-N-(3,3,3-trifluoro-1-hydroxymethyl-2-trifluoromethyl-propyl)-benzenesulfonamide] | 9.77 µM | 11.2 µM
7 | CC(=O)c1cccc(S(=O)(=O)NC(CO)C(C(F)(F)F)C(F)(F)F)c1 (stereo not shown) [Example 6, 3-Acetyl-N-(3,3,3-trifluoro-1-hydroxymethyl-2-trifluoromethyl-propyl)-benzenesulfonamide] | 13.4 µM | 11.2 µM
8 | O=S(=O)(NC(CO)C(C(F)(F)F)C(F)(F)F)c1cccc(F)c1 (stereo not shown) [Example 27, 3-fluoro-N-(3,3,3-trifluoro-1-hydroxymethyl-2-trifluoromethyl-propyl)-benzenesulfonamide] | 9.08 µM | 12.1 µM
9 | O=S(=O)(NC(CO)C(C(F)(F)F)C(F)(F)F)c1cc(Cl)cc(Cl)c1 (stereo not shown) [Example 36, 3,5-dichloro-N-(3,3,3-trifluoro-1-hydroxymethyl-2-trifluoromethyl-propyl)-benzenesulfonamide] | 64 µM | 
10 | COc1ccc(S(=O)(=O)NC(CO)C(C(F)(F)F)C(F)(F)F)cc1 (stereo not shown) [Example 11, 4-methoxy-N-[3,3,3-trifluoro-1-(hydroxymethyl)-2-(trifluoromethyl)propyl]benzenesulfonamide] | 6.81 µM | 6.44 µM
11 | COc1cc(S(=O)(=O)NC(CO)C(C(F)(F)F)C(F)(F)F)ccc1Cl (stereo not shown) [Example 3, 4-Chloro-3-methoxy-N-(3,3,3-trifluoro-1-hydroxymethyl-2-trifluoromethyl-propyl)-benzenesulfonamide] | 9.94 µM | 13.8 µM
12 | O=S(=O)(NC(CO)C(C(F)(F)F)C(F)(F)F)c1cccc(OC(F)F)c1 (stereo not shown) [Example 8, 3-(difluoromethoxy)-N-[3,3,3-trifluoro-1-(hydroxymethyl)2-(trifluoromethyl)propyl]benzenesulfonamide] | 47.9 µM | 
13 | COc1cccc(S(=O)(=O)NC(CO)C(C(F)(F)F)C(F)(F)F)c1 (stereo not shown) [Example 12, 3-methoxy-N-[3,3,3-trifluoro-1-(hydroxymethyl)-2-(trifluoromethyl)propyl]benzenesulfonamide] | 24.1 µM | 
14 | O=S(=O)(NC(CO)C(C(F)(F)F)C(F)(F)F)c1ccccc1F (stereo not shown) [Example 28, 2-fluoro-N-(3,3,3-trifluoro-1-hydroxymethyl-2-trifluoromethyl-propyl)-benzenesulfonamide] | 23.4 µM | 44.2 µM
15 | Cc1cc(S(=O)(=O)NC(CO)C(C(F)(F)F)C(F)(F)F)ccc1F (stereo not shown) [Example 25, 4-Fluoro-3-methyl-N-(3,3,3-trifluoro-1-hydroxymethyl-2-trifluoromethyl-propyl)-benzenesulfonamide] | 6.63 µM | 8.37 µM
16 | CCCc1ccc(S(=O)(=O)NC(CO)C(C(F)(F)F)C(F)(F)F)cc1 (stereo not shown) [Example 13, 4-propyl-N-[3,3,3-trifluoro-1-(hydroxymethyl)-2-(trifluoromethyl)propyl]benzenesulfonamide] | 18 µM | 

Stronger by EC50 [1], values ahead:

Row | EC50 [1] | EC50 [2] | Compound
17 | 5.07 µM | 4.84 µM | C[C@@H]([C@@H](CO)NS(=O)(=O)c1ccc(Cl)c(Cl)c1)C(F)(F)F [Example 46, 3,4-Dichloro-N-[(1S,2S)-3,3,3-trifluoro-1-(hydroxymethyl)-2-methylpropyl]benzenesulfonamide]
18 | 4.68 µM | 6.55 µM | O=S(=O)(NC(CO)C(C(F)(F)F)C(F)(F)F)c1ccc(Cl)c(Cl)c1 (stereo not shown) [Example 38, 3,4-dichloro-N-(3,3,3-trifluoro-1-hydroxymethyl-2-trifluoromethyl-propyl)-benzenesulfonamide]
19 | 0.997 µM | 0.932 µM | O=S(=O)(NC(CO)C(C(F)(F)F)C(F)(F)F)c1ccc(Cl)cc1 (stereo not shown) [Example 21, 4-chloro-N-(3,3,3-trifluoro-1-hydroxymethyl-2-trifluoromethyl-propyl)-benzenesulfonamide]
20 | 1.13 µM | 1.21 µM | O=S(=O)(NC(CO)C(C(F)(F)F)C(F)(F)F)c1ccc(F)cc1 (stereo not shown) [Example 26, 4-Fluoro-N-[3,3,3-trifluoro-1-(hydroxymethyl)-2-(trifluoromethyl)propyl]benzene sulfonamide]
21 | 2.29 µM | 1.94 µM | O=S(=O)(NC(CO)C(C(F)(F)F)C(F)(F)F)c1ccc(C(F)(F)F)cc1 (stereo not shown) [Example 17, N-[3,3,3-trifluoro-1-(hydroxymethyl)-2-(trifluoromethyl)propyl]-4-(trifluoromethyl)benzenesulfonamide]
22 | 0.651 µM | 0.563 µM | C[C@@H]([C@@H](CO)NS(=O)(=O)c1ccc(F)cc1)C(F)(F)F [Example 48, 4-Fluoro-N-[(1S,2S)-3,3,3-trifluoro-1-(hydroxymethyl)-2-methylpropyl]benzenesulfonamide]
23 | 0.423 µM | 0.384 µM | C[C@@H]([C@@H](CO)NS(=O)(=O)c1ccc(Cl)cc1)C(F)(F)F [Example 43, 4-Chloro-N-[(1S,2S)-3,3,3-trifluoro-1-(hydroxymethyl)-2-methylpropyl]benzenesulfonamide]
24 | 0.22 µM | 0.177 µM | O=S(=O)(N[C@H](CO)C(C(F)(F)F)C(F)(F)F)c1ccc(Cl)cc1 [Example 1, 4-Chloro-N-[(1S)-3,3,3-trifluoro-1-(hydroxymethyl)-2-(trifluoromethyl)propyl]benzenesulfonamide]
25 | 0.886 µM | 0.905 µM | O=S(=O)(NC(CO)C(C(F)(F)F)C(F)(F)F)c1ccc(Br)cc1 (stereo not shown) [Example 31, 4-bromo-N-(3,3,3-trifluoro-1-hydroxymethyl-2-trifluoromethyl-propyl)-benzenesulfonamide]
26 | 5.72 µM | 6.34 µM | O=S(=O)(NC(CO)C(C(F)(F)F)C(F)(F)F)c1cc(F)cc(F)c1 (stereo not shown) [Example 22, 3,5-Difluoro-N-(3,3,3-trifluoro-1-hydroxymethyl-2-trifluoromethyl-propyl)-benzenesulfonamide]
